Laboratory results taken from patent US12157746B2, “Tetrahydro-1H-pyrazino[2,1-a]isoindolylquinoline compounds for the treatment of autoimmune disease” (F. HOFFMANN-LA ROCHE AG, priority 2018, dated 2024).

molecular target: T1, human TLR7 (Homo sapiens, UniProt Q9NYK1); assay: HEK293-Blue-hTLR-7 cells assay; assay type: cell-based; details: HEK293-Blue-hTLR7 cells, R848 stimulation, 20 hrs, SEAP reporter; read-out: HEK/hTLR7 IC50
T1 sequence (Q9NYK1 27-1049): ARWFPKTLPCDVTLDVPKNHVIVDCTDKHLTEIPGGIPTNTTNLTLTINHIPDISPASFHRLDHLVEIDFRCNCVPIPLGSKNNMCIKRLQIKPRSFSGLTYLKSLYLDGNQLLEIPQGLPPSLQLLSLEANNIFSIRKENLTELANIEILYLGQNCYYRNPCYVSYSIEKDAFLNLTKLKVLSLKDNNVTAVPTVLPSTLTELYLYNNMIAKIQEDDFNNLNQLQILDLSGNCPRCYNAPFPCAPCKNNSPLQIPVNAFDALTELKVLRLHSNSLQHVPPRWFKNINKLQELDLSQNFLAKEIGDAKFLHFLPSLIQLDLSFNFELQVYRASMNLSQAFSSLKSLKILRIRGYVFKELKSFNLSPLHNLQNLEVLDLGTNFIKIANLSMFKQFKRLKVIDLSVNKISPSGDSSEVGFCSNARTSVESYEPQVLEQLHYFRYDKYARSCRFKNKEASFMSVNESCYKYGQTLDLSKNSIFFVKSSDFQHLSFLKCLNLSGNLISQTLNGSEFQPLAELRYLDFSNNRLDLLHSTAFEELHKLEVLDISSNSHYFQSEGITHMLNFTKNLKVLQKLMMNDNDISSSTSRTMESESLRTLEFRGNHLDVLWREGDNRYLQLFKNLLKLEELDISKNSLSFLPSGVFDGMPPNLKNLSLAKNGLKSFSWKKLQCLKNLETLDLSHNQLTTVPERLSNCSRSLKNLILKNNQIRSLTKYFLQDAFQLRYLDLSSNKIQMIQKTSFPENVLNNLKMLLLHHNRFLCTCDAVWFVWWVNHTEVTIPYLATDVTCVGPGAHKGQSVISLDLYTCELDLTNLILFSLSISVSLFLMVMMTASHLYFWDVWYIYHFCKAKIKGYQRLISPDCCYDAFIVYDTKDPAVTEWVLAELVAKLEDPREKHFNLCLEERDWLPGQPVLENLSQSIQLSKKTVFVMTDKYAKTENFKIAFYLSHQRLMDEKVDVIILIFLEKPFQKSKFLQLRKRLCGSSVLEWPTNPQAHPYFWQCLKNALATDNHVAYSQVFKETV
Outline: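 HEK293-Blue-hTLR7 cells (NF-κB/AP-1-driven SEAP reporter) incubated with serially diluted compound (1% DMSO final) and R848 agonist for 20 h at 37 °C. Supernatant SEAP measured with QUANTI-Blue (2 h, 37 °C) by absorbance at 620-655 nm; antagonism seen as reduced reporter.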

SMILES | IC50 [nM]
C[C@@H]1CN(c2ccc(C#N)c3ncccc23)C[C@@H]2c3ccc(N4CCNC[C@@H](O)C4)cc3CN12 [Example 53B, 5-[(4R,10bS)-8-[(6R)-6-hydroxy-1,4-diazepan-1-yl]-4-methyl-3,4,6,10b-tetrahydro-1H-pyrazino[2,1-a]isoindol-2-yl]quinoline-8-carbonitrile] | 8.9
C[C@@H]1CN(c2ccc(C#N)c3ncccc23)C[C@@H]2c3ccc(N4CCOCC(N)C4)cc3CN12 (stereo partly drawn) [Example 54, 5-[(4R,10bS)-8-(6-amino-1,4-oxazepan-4-yl)-4-methyl-3,4,6,10b-tetrahydro-1H-pyrazino[2,1-a]isoindol-2-yl]quinoline-8-carbonitrile] | 4
C[C@@H]1CN(c2ccc(C#N)c3ncccc23)C[C@@H]2c3ccc(N4CCOC[C@H](N)C4)cc3CN12 [Example 54A, 5-[(4R,10bS)-8-[(6R)-6-amino-1,4-oxazepan-4-yl]-4-methyl-3,4,6,10b-tetrahydro-1H-pyrazino[2,1-a]isoindol-2-yl]quinoline-8-carbonitrile] | 4.5
C[C@@H]1CN(c2ccc(C#N)c3ncccc23)C[C@@H]2c3ccc(N4CCOC[C@@H](N)C4)cc3CN12 [Example 54B, 5-[(4R,10bS)-8-[(6S)-6-amino-1,4-oxazepan-4-yl]-4-methyl-3,4,6,10b-tetrahydro-1H-pyrazino[2,1-a]isoindol-2-yl]quinoline-8-carbonitrile] | 5.7
C[C@@H]1CN(c2ccc(C#N)c3ncccc23)C[C@@H]2c3ccc(N4CCNCC(C)(O)C4)cc3CN12 (stereo partly drawn) [Example 55, 5-[(4R,10S)-8-(6-hydroxy-6-methyl-1,4-diazepan-1-yl)-4-methyl-3,4,6,10b-tetrahydro-1H-pyrazino[2,1-a]isoindol-2-yl]quinoline-8-carbonitrile] | 6.5
C[C@@H]1CN(c2ccc(C#N)c3ncccc23)C[C@@H]2c3ccc(N4CCNC[C@](C)(O)C4)cc3CN12 [Example 55A, 5-[(4R,10bS)-8-[(6S)-6-hydroxy-6-methyl-1,4-diazepan-1-yl]-4-methyl-3,4,6,10b-tetrahydro-1H-pyrazino[2,1-a]isoindol-2-yl]quinoline-8-carbonitrile] | 7.7
C[C@@H]1CN(c2ccc(C#N)c3ncccc23)C[C@@H]2c3ccc(N4CCNC[C@@](C)(O)C4)cc3CN12 [Example 55B, 5-[(4R,10bS)-8-[(6R)-6-hydroxy-6-methyl-1,4-diazepan-1-yl]-4-methyl-3,4,6,10b-tetrahydro-1H-pyrazino[2,1-a]isoindol-2-yl]quinoline-8-carbonitrile] | 16.1
C[C@@H]1CN(c2ccc(C#N)c3ncccc23)C[C@@H]2c3ccc(NC4CNCCOC4)cc3CN12 (stereo partly drawn) [Example 56, 5-[(4R,10bS)-4-methyl-8-(1,4-oxazepan-6-ylamino)-3,4,6,10b-tetrahydro-1H-pyrazino[2,1-a]isoindol-2-yl]quinoline-8-carbonitrile] | 6.9
[2H]c1ccc2c(N3C[C@@H](C)N4Cc5cc(N[C@H]6CNC[C@H]6F)ccc5[C@H]4C3)ccc(C#N)c2n1 [Example 91, 5-[(4R,10bS)-8-[[(3S,4R)-4-fluoropyrrolidin-3-yl]amino]-4-methyl-3,4,6,10b-tetrahydro-1H-pyrazino[2,1-a]isoindol-2-yl]-2-deuterio-quinoline-8-carbonitrile] | 1.7
[2H]c1ccc2c(N3C[C@@H](C)N4Cc5cc(N6CC(C)(N)C6)ccc5[C@H]4C3)ccc(C#N)c2n1 [Example 92, 5-[(4R,10bS)-8-(3-amino-3-methyl-azetidin-1-yl)-4-methyl-3,4,6,10b-tetrahydro-1H-pyrazino[2,1-a]isoindol-2-yl]-2-deuterio-quinoline-8-carbonitrile] | 3.1
[2H]c1ccc2c(N3C[C@@H](C)N4Cc5cc(N6CC7CNCC(C6)O7)ccc5[C@H]4C3)ccc(C#N)c2n1 [Example 93, 5-[(4R,10bS)-4-methyl-8-(9-oxa-3,7-diazabicyclo[3.3.1]nonan-3-yl)-3,4,6,10b-tetrahydro-1H-pyrazino[2,1-a]isoindol-2-yl]-2-deuterio-quinoline-8-carbonitrile] | 3.8
CO[C@@H]1CN(c2ccc3c(c2)CN2[C@H](C)CN(c4ccc(C#N)n5nccc45)C[C@H]32)C[C@H]1N [Example 94, 4-[(4R,10bS)-8-[(3R,4R)-3-amino-4-methoxy-pyrrolidin-1-yl]-4-methyl-3,4,6,10b-tetrahydro-1H-pyrazino[2,1-a]isoindol-2-yl]pyrazolo[1,5-a]pyridine-7-carbonitrile] | 13.7
CO[C@H]1CN(c2ccc3c(c2)CN2[C@H](C)CN(c4ccc(C#N)n5nccc45)C[C@H]32)C[C@@H]1N [Example 95, 4-[(4R,10bS)-8-[(3S,4S)-3-amino-4-methoxy-pyrrolidin-1-yl]-4-methyl-3,4,6,10b-tetrahydro-1H-pyrazino[2,1-a]isoindol-2-yl]pyrazolo[1,5-a]pyridine-7-carbonitrile] | 20.8
C[C@@H]1CN(c2ccc(C#N)n3nccc23)C[C@@H]2c3ccc(N4CC[C@@H](N)C4)cc3CN12 [Example 96, 4-[(4R,10bS)-8-[(3R)-3-aminopyrrolidin-1-yl]-4-methyl-3,4,6,10b-tetrahydro-1H-pyrazino[2,1-a]isoindol-2-yl]pyrazolo[1,5-a]pyridine-7-carbonitrile] | 32.6
C[C@@H]1CN(c2ccc3c(c2)CN2[C@H](C)CN(c4ccc(C#N)n5nccc45)C[C@H]32)CCN1 [Example 97, 4-[(4R,10bS)-4-methyl-8-[(3R)-3-methylpiperazin-1-yl]-3,4,6,10b-tetrahydro-1H-pyrazino[2,1-a]isoindol-2-yl]pyrazolo[1,5-a]pyridine-7-carbonitrile] | 5
C[C@@H]1CN(c2ccc(C#N)n3nccc23)C[C@@H]2c3ccc(N[C@H]4CNC[C@H]4F)cc3CN12 [Example 98, 4-[(4R,10bS)-8-[[(3S,4R)-4-fluoropyrrolidin-3-yl]amino]-4-methyl-3,4,6,10b-tetrahydro-1H-pyrazino[2,1-a]isoindol-2-yl]pyrazolo[1,5-a]pyridine-7-carbonitrile] | 23.2
C[C@@H]1CN(c2ccc(C#N)n3nccc23)C[C@@H]2c3ccc(N4CCOC[C@H](N)C4)cc3CN12 [Example 101, 4-[(4R,10bS)-8-[(6R)-6-amino-1,4-oxazepan-4-yl]-4-methyl-3,4,6,10b-tetrahydro-1H-pyrazino[2,1-a]isoindol-2-yl]pyrazolo[1,5-a]pyridine-7-carbonitrile] | 26.4
C[C@@H]1CN(c2ccc(C#N)n3nccc23)C[C@@H]2c3ccc(N4CC[C@@](C)(N)C4)cc3CN12 [Example 103, 4-[(4R,10bS)-8-[(3R)-3-amino-3-methyl-pyrrolidin-1-yl]-4-methyl-3,4,6,10b-tetrahydro-1H-pyrazino[2,1-a]isoindol-2-yl]pyrazolo[1,5-a]pyridine-7-carbonitrile] | 25.8
CO[C@@H]1CN(c2ccc3c(c2)CN2[C@H](C)CN(c4ccc(C#N)n5nccc45)C[C@H]32)CC[C@H]1N [Example 104, 4-[(4R,10bS)-8-[(3R,4R)-4-amino-3-methoxy-1-piperidyl]-4-methyl-3,4,6,10b-tetrahydro-1H-pyrazino[2,1-a]isoindol-2-yl]pyrazolo[1,5-a]pyridine-7-carbonitrile] | 6.1
